# Experimental data: PubChem BioAssay (NCI)
#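 96-well plates; 48 h exposure; 5 concentrations. Endpoints by linear interpolation between flanking doses. Not reached: highest tested concentration assigned. The concentration for 50% growth inhibition is given as GI50. TGI denotes the concentration required for complete inhibition of growth.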
# Legend:
# Test in all cases: NCI tumour cell line growth inhibition, 48 h
# [1] = system: MDA-MB-231 breast
# [2] = system: SW-620 colon
# [3] = system: OVCAR-3 ovarian
# [4] = system: SK-OV-3 ovarian
# [5] = system: NCI-H23 lung
# [6] = system: BT-549 breast
# [7] = system: RPMI-8226 leukemia
# [8] = system: MALME-3M melanoma
# [9] = system: K-562 leukemia
# [10] = system: HOP-62 NSCLC
# [11] = system: IGROV1 ovarian
# [12] = system: M14 melanoma
# [13] = system: HOP-92 NSCLC
# [14] = system: 786-0 renal
# [15] = system: ACHN renal
# [16] = system: SF-295 CNS
# [17] = system: EKVX NSCLC
# [18] = system: U251 CNS
# [19] = system: HCC-2998 colon
# [20] = system: PC-3 prostate
# [21] = system: HT29 colon
# [22] = system: HS 578T breast
# [23] = system: HL-60(TB) leukemia
# [24] = system: NCI/ADR-RES ovarian
# [25] = system: SF-268 CNS
# [26] = system: CAKI-1 renal
# [27] = system: OVCAR-4 ovarian
# [28] = system: UACC-257 melanoma
# [29] = system: HCT-116 colon
# [30] = system: UO-31 renal
# [31] = system: SK-MEL-2 melanoma
# [32] = system: NCI-H226 lung
# [33] = system: A549 NSCLC
# [34] = system: NCI-H522 lung
# [35] = system: DU-145 prostate
# [36] = system: SNB-75 CNS
# [37] = system: UACC-62 melanoma
# [38] = system: SNB-19 CNS
# [39] = system: SF-539 CNS
# [40] = system: SK-MEL-28 melanoma
# [41] = system: MCF7 breast
# [42] = system: HCT-15 colon
# [43] = system: NCI-H460 lung
# [44] = system: A498 renal
# [45] = system: KM12 colon
# [46] = system: SK-MEL-5 melanoma
# [47] = system: OVCAR-8 ovarian
# [48] = system: TK-10 renal
# [49] = system: MDA-MB-435
# [50] = system: CCRF-CEM leukemia
# [51] = system: RXF 393 renal
# [52] = system: SN12C renal
# [53] = system: OVCAR-5 ovarian
compound,measurement,setting,value
c1csc(-c2cn3nc(-c4c[nH]c5ccccc45)sc3n2)c1,GI50,[1],1.08 µM
same,TGI,[1],7.88 µM
same,GI50,[2],0.434 µM
same,TGI,[2],> 100 µM
same,GI50,[3],0.924 µM
same,TGI,[3],9.02 µM
same,GI50,[4],2.8 µM
same,TGI,[4],82.7 µM
same,GI50,[5],4.47 µM
same,TGI,[5],> 100 µM
same,GI50,[6],2.87 µM
same,TGI,[6],31.7 µM
same,GI50,[7],1.47 µM
same,TGI,[7],15.4 µM
same,GI50,[8],10.4 µM
same,TGI,[8],36.9 µM
same,GI50,[9],0.382 µM
same,TGI,[9],39.9 µM
same,GI50,[10],1.58 µM
same,TGI,[10],39.9 µM
same,GI50,[11],1.79 µM
same,TGI,[11],> 100 µM
same,GI50,[12],0.75 µM
same,TGI,[12],15.8 µM
same,GI50,[13],5.46 µM
same,TGI,[13],> 100 µM
same,GI50,[14],3.06 µM
same,TGI,[14],> 100 µM
same,GI50,[15],3.23 µM
same,TGI,[15],52.5 µM
same,GI50,[16],1.74 µM
same,TGI,[16],6.44 µM
same,GI50,[17],1.99 µM
same,TGI,[17],> 100 µM
same,GI50,[18],1.21 µM
same,TGI,[18],17 µM
same,GI50,[19],2.99 µM
same,TGI,[19],26.7 µM
same,GI50,[20],2.07 µM
same,TGI,[20],> 100 µM
same,GI50,[21],0.413 µM
same,TGI,[21],10.2 µM
same,GI50,[22],2.65 µM
same,TGI,[22],> 100 µM
same,GI50,[23],0.76 µM
same,TGI,[23],20.9 µM
same,GI50,[24],0.561 µM
same,TGI,[24],> 100 µM
same,GI50,[25],3.84 µM
same,TGI,[25],> 100 µM
same,GI50,[26],0.997 µM
same,TGI,[26],> 100 µM
same,GI50,[27],4.42 µM
same,TGI,[27],> 100 µM
same,GI50,[28],11.4 µM
same,TGI,[28],98.3 µM
same,GI50,[29],0.627 µM
same,TGI,[29],70.6 µM
same,GI50,[30],1.71 µM
same,TGI,[30],> 100 µM
same,GI50,[31],1.08 µM
same,TGI,[31],23.8 µM
same,GI50,[32],9.94 µM
same,TGI,[32],> 100 µM
same,GI50,[33],1.72 µM
same,TGI,[33],> 100 µM
same,GI50,[34],0.754 µM
same,TGI,[34],> 100 µM
same,GI50,[35],2.86 µM
same,TGI,[35],> 100 µM
same,GI50,[36],0.445 µM
same,TGI,[36],8.09 µM
same,GI50,[37],0.738 µM
same,TGI,[37],18.7 µM
same,GI50,[38],2.56 µM
same,TGI,[38],> 100 µM
same,GI50,[39],1.49 µM
same,TGI,[39],4.6 µM
same,GI50,[40],4.74 µM
same,TGI,[40],44 µM
same,GI50,[41],1.17 µM
same,TGI,[41],20.2 µM
same,GI50,[42],0.488 µM
same,TGI,[42],15.6 µM
same,GI50,[43],0.574 µM
same,TGI,[43],> 100 µM
same,GI50,[44],5.97 µM
same,TGI,[44],23.6 µM
same,GI50,[45],0.498 µM
same,TGI,[45],10.5 µM
same,GI50,[46],0.714 µM
same,TGI,[46],15.1 µM
same,GI50,[47],2.72 µM
same,TGI,[47],> 100 µM
same,GI50,[48],5.21 µM
same,TGI,[48],33.5 µM
same,GI50,[49],0.225 µM
same,TGI,[49],0.685 µM
same,GI50,[50],2.19 µM
same,TGI,[50],27.2 µM
same,GI50,[51],2.05 µM
same,TGI,[51],50 µM
same,GI50,[52],1.15 µM
same,TGI,[52],> 100 µM
same,GI50,[53],4.27 µM
same,TGI,[53],76.4 µM
